Results as given in paper PMC6686156, “Discovery of Sustainable Drugs for Neglected Tropical Diseases: Cashew Nut Shell Liquid (CNSL)‐Based Hybrids Target Mitochondrial Function and ATP Production in Trypanosoma brucei” (Chemmedchem, 2019).

How the values were obtained:
[1] = system: T. b. rhodesiense (STIB 900 strain); set-up: method as in earlier work; conditions: different resazurin protocol, ref 14a, read-out: IC50 (called EC50) against T. b. rhodesiense; cited from earlier work
T. b. brucei ISMR1 = test: In vitro drug susceptibility assay (resazurin), dyskinetoplastic ISMR1 strain; format: cell-based, Trypanosoma brucei brucei; conditions: isometamidium-resistant line
Protocol: (§1) Organisms and culture media: Only bloodstream trypomastigotes of T. b. brucei were used throughout this study. […] Parasites were cultured in vented flasks at 37 °C and 5 % CO2 atmosphere and they were passaged every 3 days. Bloodstream forms of T. congolense savannah‐type strain IL3000 were cultured in basal MEM medium, supplemented by 10 % fresh goat serum, 14 μL of β‐mercaptoethanol, 800 μL of 200 mM glutamine solution, and 10 mL of penicillin/streptomycin solution per liter of medium (pH 7.3).48 T. congolense were cultured in six‐well plates at 34 °C and 5 % CO2.
(§2) In brief, the assays were performed in 96‐well plates with 2×10^5 cells per well for T. b. brucei or 5×10^5 cells per well for T. congolense, in their respective culture media. First, 200 μL of test compounds’ solutions (400 μM, in T. brucei or T. congolense medium as appropriate) was added to the first well of each 12‐well row, from which doubling dilutions were conducted over one row per test compound. […] Fluorescence was detected using a FLUOstar Optima (BMG Labtech, Durham, NC, USA) at wavelength of 540 nm (excitation), 590 nm (emission). EC50 values were calculated by nonlinear regression using an equation for a sigmoidal dose–response curve with variable slope using Prism 5.0 (GraphPad Software Inc., San Diego, CA, USA).

[2] = system: T. b. brucei aqp2/aqp3‐KO; test: microbe, parasite or virus in culture; format: cell-based, Trypanosoma brucei brucei
Protocol: as §1, §2

T. b. brucei B48 = test: microbe, parasite or virus in culture; format: cell-based, Trypanosoma brucei brucei
Protocol: as §1, §2

[3] = system: T. b. brucei 427WT bloodstream trypomastigotes; test: microbe, parasite or virus in culture; format: cell-based, Trypanosoma brucei brucei; conditions: Trypanosoma brucei, 72 h; bloodstream trypomastigotes; resazurin; 48 h + 24 h; n=4; read-out: EC50 T. b. b. 427WT
Protocol: as §1, §2

T. congolense IL3000 WT = test: In vitro drug susceptibility assay (resazurin), T. congolense; format: cell-based; conditions: Trypanosoma congolense, bloodstream forms, read-out: EC50 T. c. IL3000 WT
Protocol: as §1, §2

L6 mammalian cells = system: L6 mammalian cells; set-up: method as in earlier work; conditions: versus T. b. rhodesiense STIB 900; ref 14a; cited from earlier work
HFF cells = test: ATP assay on HFF cells; format: cell-based, human; conditions: 22 at 200 μM, oligomycin 2 μg/mL; 0, 4, 8 h
Protocol: ATP assay on T. b. brucei and HFF cells: Changes in cellular ATP levels due to the exposure of trypanosomes to the test compounds (0.5×EC50) were monitored using the Molecular Probes ATP Determination Kit (A22066, Invitrogen Detection Technologies), based on the luciferin–luciferase bioluminescent enzymatic reaction. Bloodstream trypomastigote cultures of T. brucei s427WT were incubated with and without test compound, and, at each predetermined incubation time, 10^7 cells of each sample were transferred into a microfuge tube and centrifuged at 2000×g for 10 min at 4 °C. The pellet was washed twice with 1 mL of 50 mM Tris⋅HCl (pH 7.4) containing 0.1 mM DTT, and then resuspended in 200 μL of the same buffer. […] ATP levels were quantified using the contents of the kit following the manufacturer's instructions; 90 μL of standard reaction solution was added to each well of a 96‐well plate and the background luminescence was recorded in a FLUOstar OPTIMA fluorimeter; 10 μL of each sample was then added to each well. The plate was incubated at 28 °C for 15 min and the luminescence was measured, including a standard curve with an ATP concentration ranging from 1 nM to 1 μM to allow the calculation of the ATP concentrations in each sample. The ATP content was measured at 0, 0.5, 1, 2, 4, 8 and 12 h of incubation with test sample. […]

[4] = system: T. b. brucei 427WT bloodstream trypomastigotes; test: ATP assay on T. b. brucei (luciferin-luciferase); format: cell-based, Trypanosoma brucei brucei; conditions: oligomycin 2.0 μg/mL, positive control
Protocol: ATP assay on T. b. brucei and HFF cells: Changes in cellular ATP levels due to the exposure of trypanosomes to the test compounds (0.5×EC50) were monitored using the Molecular Probes ATP Determination Kit (A22066, Invitrogen Detection Technologies), based on the luciferin–luciferase bioluminescent enzymatic reaction. Bloodstream trypomastigote cultures of T. brucei s427WT were incubated with and without test compound, and, at each predetermined incubation time, 10^7 cells of each sample were transferred into a microfuge tube and centrifuged at 2000×g for 10 min at 4 °C. The pellet was washed twice with 1 mL of 50 mM Tris⋅HCl (pH 7.4) containing 0.1 mM DTT, and then resuspended in 200 μL of the same buffer. The cells were lysed by sonication on ice (twice for 10 s separated by 30 s), using a Soniprep 150 (MSE) at 8 μm amplitude. The samples were centrifuged at 10 000×g for 10 min at 4 °C and the supernatant was collected, instantly frozen in liquid nitrogen, and stored at −80 °C. Oligomycin (2.0 μg mL^−1) was used as positive control. ATP levels were quantified using the contents of the kit following the manufacturer's instructions; 90 μL of standard reaction solution was added to each well of a 96‐well plate and the background luminescence was recorded in a FLUOstar OPTIMA fluorimeter; 10 μL of each sample was then added to each well. The plate was incubated at 28 °C for 15 min and the luminescence was measured, including a standard curve with an ATP concentration ranging from 1 nM to 1 μM to allow the calculation of the ATP concentrations in each sample. The ATP content was measured at 0, 0.5, 1, 2, 4, 8 and 12 h of incubation with test sample.

Row | SMILES | IC50 [1] [nM] | EC50 in ISMR1 relative to 427WT tested in parallel (T. b. brucei ISMR1) | EC50 ([2]; Trypanosoma brucei, read-out: EC50 T. b. b. aqp2/aq3‐KO) [µM] | RF, resistance factor relative to WT (aqp2/aqp3-KO) ([2]; aqp2/aqp3-KO versus 427WT) | RF, resistance factor relative to WT (B48) (T. b. brucei B48; B48 versus 427WT) | EC50 (T. b. brucei B48; Trypanosoma brucei, read-out: EC50 T. b. b. B48) [µM] | EC50 [3] [µM] | EC50 (T. congolense IL3000 WT) [µM] | selectivity index (SI) with respect to L6 mammalian cells (L6 mammalian cells) | effect on cellular ATP levels of HFF cells (HFF cells) | effect on ATP levels relative to 20 and 22 [4]
1 | O=C1C=C(Oc2ccccc2)C(=O)c2ccccc21 [Compound 4, 2‐phenoxynaphthalene‐1,4‐dione, reference compound] | 80 | did not show a significant increase in the EC50 values | 62.4 ± 0.8 | 1.3 | 1.3 | 63 ± 0.4 | 48.7 ± 0.8 | 108 ± 2 | 74 | – | –
2 | CC[C@H]1/C=C/C=C/C[C@@H](C)[C@H](O)[C@@](C)(O)C(=O)[C@@H](C)[C@H](O)[C@@H](C)C(=O)[C@@H](C)[C@H](O)[C@@H](C)/C=C/C(=O)O[C@@H]2[C@H](C)[C@H](CC1)O[C@]1(CC[C@H](C)[C@H](C[C@@H](C)O)O1)[C@H]2C [oligomycin, reference compound] | – | – | – | – | – | – | – | – | – | strong effect even at 4 h | depressed the ATP levels even further
